Results taken from patent publication US9556139B2, “6-substituted phenoxychroman carboxylic acid derivatives” (Array BioPharma Inc., priority 2008, dated 2017).
Like-named read-outs stand apart in the source and are kept apart here.

Target: human DP2 (Homo sapiens (Human), UniProt Q9Y5Y4)
Test: DP-2 Binding Inhibition Assay (3H-PGD2 binding to membranes of K562 cells expressing DP2)
Settings: inhibition of 3H-PGD2 binding
Description: DP-2 Binding Inhibition Assay
The coding sequence of human DP2 was introduced into the human Leukemic cell line K562 by electroporation and stable clones expressing DP2 were obtained by limiting dilution followed by cell surface staining with a rat monoclonal antibody specific for human DP2. Membranes were prepared from one of these DP2 expressing clones and used to determine the ability of compounds of the present invention to inhibit binding of prostaglandin D2 (PGD2) to its receptor DP2 in the presence of one or more of the following serum protein concentrations, 0.1% BSA, 1% HSA or 4% HSA, by the following procedure. Membranes (1.25 μg/well for 0.1% BSA and 6 μg/well for 1% or 4% HSA) were mixed with ^3H-labeled PGD2 and various concentrations of test compounds in 150 μL of binding buffer (50 mM Tris-HCl, pH 7.4, 40 mM MgCl2, 0.1% bovine serum albumin, 0.1% NaN3) in 96-well U-bottom polypropylene plates. After incubation for 60 minutes at room temperature, the assay was transferred to a filtration plate (#MAFB; Millipore Corporation, Bedford, Mass.), and washed three times with binding buffer. Radioactivity was measured by a scintillation counter (TopCount; PerkinElmer Life Sciences, Boston, Mass.). Nonspecific binding was determined by incubations in the presence of 1 μM unlabeled PGD2 or 5 μM of a known DP2 antagonist. EC50 values for inhibition of binding were determined for each compound tested from the inflexion point of a standard 4-parameter logistical curve fitted to the values obtained.

[1] = read-out: EC50 (nM) 4% HSA, 4% HSA
[2] = read-out: EC50 (Nm) 1% HSA, 1% HSA

human DP2, sequence (Q9Y5Y4 whole entry): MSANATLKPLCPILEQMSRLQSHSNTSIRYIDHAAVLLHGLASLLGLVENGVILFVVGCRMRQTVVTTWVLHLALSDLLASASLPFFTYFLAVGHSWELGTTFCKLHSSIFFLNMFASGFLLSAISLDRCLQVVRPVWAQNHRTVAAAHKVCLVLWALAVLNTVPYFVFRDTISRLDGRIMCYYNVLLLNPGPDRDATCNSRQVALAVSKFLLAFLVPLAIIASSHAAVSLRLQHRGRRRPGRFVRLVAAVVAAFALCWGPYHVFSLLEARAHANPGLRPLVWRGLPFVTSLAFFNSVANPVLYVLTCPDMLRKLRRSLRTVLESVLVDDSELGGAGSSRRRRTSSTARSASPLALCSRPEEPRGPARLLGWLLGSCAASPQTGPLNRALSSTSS

EC50 [1] [nM]	EC50 [2] [nM]	Compound
4190		Cc1ccc(SCCNC(=O)c2ccc(Oc3cc4c(cc3Cl)C(C(=O)O)CCO4)cc2)cc1 (centres unmarked) [Example 112, Sodium 6-chloro-7-(4-(2-(p-tolylthio)ethylcarbamoyl)phenoxy)chroman-4-carboxylate]
91.8		O=C(NCCc1ccccc1-c1cccc(Cl)c1)c1ccc(Oc2cc3c(cc2Cl)C(C(=O)O)CCO3)cc1 (centres unmarked) [Example 95, Sodium 6-chloro-7-(4-(2-(3′-chlorobiphenyl-2-yl)ethylcarbamoyl)phenoxy)chroman-4-carboxylate]
521		O=C(NCCc1ccccc1F)c1ccc(Oc2cc3c(cc2Cl)C(C(=O)O)CCO3)cc1 (centres unmarked) [Example 153, Sodium 6-chloro-7-(4-(2-fluorophenethylcarbamoyl)phenoxy)chroman-4-carboxylate]
98.9		O=C(NCCc1ccccc1Cl)c1ccc(Oc2cc3c(cc2Cl)C(C(=O)O)CCO3)cc1 (centres unmarked) [Example 79, Sodium 6-chloro-7-(4-(2-chlorophenethylcarbamoyl)phenoxy)chroman-4-carboxylate]
	23.3	N#Cc1cc2c(cc1Oc1ccc(C(=O)Nc3ccc(Cl)cc3)cc1)OCCC2C(=O)O (centres unmarked) [Example 74, 7-(4-(4-Chlorophenylcarbamoyl)phenoxy)-6-cyanochroman-4-carboxylic acid]
	36.4	N#Cc1cc2c(cc1Oc1ccc(C(=O)NC3CCc4ccccc4C3)cc1)OCCC2C(=O)O (centres unmarked) [Example 72, 6-Cyano-7-(4-(1,2,3,4-tetrahydronaphthalen-2-ylcarbamoyl)phenoxy)chroman-4-carboxylic acid]
302		O=C(NC1CCC(c2ccc(Cl)cc2)C1)c1ccc(Oc2cc3c(cc2Cl)C(C(=O)O)CCO3)cc1 (centres unmarked) [Example 168, Sodium 6-chloro-7-(4-(3-(4-chlorophenyl)cyclopentylcarbamoyl)phenoxy)chroman-4-carboxylate]
240		N#Cc1cc2c(cc1Oc1ccc(C(=O)Nc3ccc(-c4ccc(Cl)cc4)cc3)cc1)OCCC2C(=O)O (centres unmarked) [Example 69, 7-(4-(4′-Chlorobiphenyl-4-ylcarbamoyl)phenoxy)-6-cyanochroman-4-carboxylic acid]
160		O=C(NCCc1ccc(-c2ccccc2Cl)cc1)c1ccc(Oc2cc3c(cc2Cl)C(C(=O)O)CCO3)cc1 (centres unmarked) [Example 26, Sodium 6-chloro-7-(4-(2-(2′-chlorobiphenyl-4-yl)ethylcarbamoyl)phenoxy)chroman-4-carboxylate]
3480		CN(C)Cc1ccc(CCNC(=O)c2ccc(Oc3cc4c(cc3C#N)C(C(=O)O)CCO4)cc2)cc1 (centres unmarked) [Example 44, 6-Cyano-7-(4-(4-((dimethylamino)methyl)phenethylcarbamoyl)phenoxy)chroman-4-carboxylic acid]
64.3		COc1cc(Br)ccc1CCNC(=O)c1ccc(Oc2cc3c(cc2Cl)C(C(=O)O)CCO3)cc1 (centres unmarked) [Example 35, Sodium 7-(4-(4-bromo-2-methoxyphenethylcarbamoyl)phenoxy)-6-chlorochroman-4-carboxylate]
538		O=C(NCCC1CCCC1)c1ccc(Oc2cc3c(cc2Cl)C(C(=O)O)CCO3)cc1 (centres unmarked) [Example 186, Sodium 6-chloro-7-(4-(2-cyclopentylethylcarbamoyl)phenoxy)chroman-4-carboxylate]
608		Cc1cccc(CCNC(=O)c2ccc(Oc3cc4c(cc3Cl)C(C(=O)O)CCO4)cc2)c1 (centres unmarked) [Example 146, Sodium 6-chloro-7-(4-(3-methylphenethylcarbamoyl)phenoxy)chroman-4-carboxylate]
126		O=C(NCCc1ccc(Cl)cc1-c1ccccc1Cl)c1ccc(Oc2cc3c(cc2Cl)C(C(=O)O)CCO3)cc1 (centres unmarked) [Example 33, Sodium 6-chloro-7-(4-(2-(2′,5-dichlorobiphenyl-2-yl)ethylcarbamoyl)phenoxy)chroman-4-carboxylate]
473		O=C(NCCc1c(F)cccc1Cl)c1ccc(Oc2cc3c(cc2Cl)C(C(=O)O)CCO3)cc1 (centres unmarked) [Example 82, Sodium 6-chloro-7-(4-(2-chloro-6-fluorophenethylcarbamoyl)phenoxy)chroman-4-carboxylate]
759		Cc1ccccc1CCNC(=O)c1ccc(Oc2cc3c(cc2Cl)C(C(=O)O)CCO3)cc1 (centres unmarked) [Example 20, Sodium 6-chloro-7-(4-(2-methylphenethylcarbamoyl)phenoxy)chroman-4-carboxylate]
119		O=C(Nc1ccc(F)c(-c2ccc(Cl)cc2)c1)c1ccc(Oc2cc3c(cc2Cl)C(C(=O)O)CCO3)cc1 (centres unmarked) [Example 71, 6-Chloro-7-(4-(4′-chloro-6-fluorobiphenyl-3-ylcarbamoyl)phenoxy)chroman-4-carboxylic acid]
	30.7	COc1cccc(CCNC(=O)c2ccc(Oc3cc4c(cc3C#N)C(C(=O)O)CCO4)cc2)c1 (centres unmarked) [Example 48, 7-(4-((3-Methoxyphenethyl)carbamoyl)phenoxy)-6-cyano-3,4-dihydro-2H-chromene-4-carboxylic acid]

Second part, the compound before the results:

Compound	EC50 [1] [nM]	EC50 [2] [nM]
COc1cc(CCNC(=O)c2ccc(Oc3cc4c(cc3C#N)C(C(=O)O)CCO4)cc2)ccc1Cl (centres unmarked) [Example 133, 7-(4-(4-Chloro-3-methoxyphenethylcarbamoyl)phenoxy)-6-cyanochroman-4-carboxylic acid]	625	
N#Cc1cc2c(cc1Oc1ccc(C(=O)Nc3ccc4ccccc4c3)cc1)OCCC2C(=O)O (centres unmarked) [Example 76, 6-Cyano-7-(4-(naphthalen-2-ylcarbamoyl)phenoxy)chroman-4-carboxylic acid]		6.7
N#Cc1cc2c(cc1Oc1ccc(C(=O)NC3Cc4ccc(Cl)cc4C3)cc1)OCCC2C(=O)O (centres unmarked) [Example 73, 7-(4-(5-Chloro-2,3-dihydro-1H-inden-2-ylcarbamoyl)phenoxy)-6-cyanochroman-4-carboxylic acid]		42.4
O=C(NCCc1ccccc1-c1ccccc1)c1ccc(Oc2cc3c(cc2Cl)C(C(=O)O)CCO3)cc1 (centres unmarked) [Example 92, Sodium 7-(4-(2-(biphenyl-2-yl)ethylcarbamoyl)phenoxy)-6-chlorochroman-4-carboxylate]	111	
CC(C)Oc1cccc(NC(=O)c2ccc(Oc3cc4c(cc3C#N)C(C(=O)O)CCO4)cc2)c1 (centres unmarked) [Example 135, 6-Cyano-7-(4-(3-isopropoxyphenylcarbamoyl)phenoxy)chroman-4-carboxylic acid]	205	
O=C(NCCc1ccc(Br)cc1)c1ccc(Oc2cc3c(cc2Cl)C(C(=O)O)CCO3)cc1 (centres unmarked) [Example 23, Sodium 7-(4-(4-bromophenethylcarbamoyl)phenoxy)-6-chlorochroman-4-carboxylate]	327	
CC(C)(C)Oc1ccccc1CCNC(=O)c1ccc(Oc2cc3c(cc2Cl)C(C(=O)O)CCO3)cc1 (centres unmarked) [Example 116, Sodium 7-(4-(2-tert-butoxyphenethylcarbamoyl)phenoxy)-6-chlorochroman-4-carboxylate]	304	
CC(C)(C)C1CCC(NC(=O)c2ccc(Oc3cc4c(cc3Cl)C(C(=O)O)CCO4)cc2)CC1 (centres unmarked) [Example 156, 7-(4-(4-tert-butylcyclohexylcarbamoyl)phenoxy)-6-chlorochroman-4-carboxylic acid]	509	
O=C(NCCc1cccc(Oc2ccccc2)c1)c1ccc(Oc2cc3c(cc2Cl)C(C(=O)O)CCO3)cc1 (centres unmarked) [Example 149, Sodium 6-chloro-7-(4-(3-phenoxyphenethylcarbamoyl)phenoxy)chroman-4-carboxylate]	280	
O=C(NCCC1CCCCC1)c1ccc(Oc2cc3c(cc2Cl)C(C(=O)O)CCO3)cc1 (centres unmarked) [Example 180, Sodium 6-chloro-7-(4-(2-cyclohexylethylcarbamoyl)phenoxy)chroman-4-carboxylate]	407	
O=C(NCCc1ccc(O)cc1)c1ccc(Oc2cc3c(cc2Cl)C(C(=O)O)CCO3)cc1 (centres unmarked) [Example 84, Sodium 6-chloro-7-(4-(4-hydroxyphenethylcarbamoyl)phenoxy)chroman-4-carboxylate]	1380	
O=C(NCCc1ccc(F)cc1Cl)c1ccc(Oc2cc3c(cc2Cl)C(C(=O)O)CCO3)cc1 (centres unmarked) [Example 97, Sodium 6-chloro-7-(4-(2-chloro-4-fluorophenethylcarbamoyl)phenoxy)chroman-4-carboxylate]	190	
Cc1cccc(-c2cccc(NC(=O)c3ccc(Oc4cc5c(cc4C#N)C(C(=O)O)CCO5)cc3)c2)c1 (centres unmarked) [Example 108, 6-Cyano-7-(4-(3′-methylbiphenyl-3-ylcarbamoyl)phenoxy)chroman-4-carboxylic acid]	69.3	
O=C(NCCOc1ccccc1)c1ccc(Oc2cc3c(cc2Cl)C(C(=O)O)CCO3)cc1 (centres unmarked) [Example 220, 6-chloro-7-(4-(2-phenoxyethylcarbamoyl)phenoxy)chroman-4-carboxylic acid]	> 2000	
O=C(NC1COC2(CCCC2)C1)c1ccc(Oc2cc3c(cc2Cl)C(C(=O)O)CCO3)cc1 (centres unmarked) [Example 187, Sodium 7-(4-(1-oxaspiro[4.4]nonan-3-ylcarbamoyl)phenoxy)-6-chlorochroman-4-carboxylate]	649	
O=C(NCCc1ccc(C(F)(F)F)cc1C(F)(F)F)c1ccc(Oc2cc3c(cc2Cl)C(C(=O)O)CCO3)cc1 (centres unmarked) [Example 221, 7-(4-(2,4-bis(trifluoromethyl)phenethylcarbamoyl)phenoxy)-6-chlorochroman-4-carboxylic acid]	45	
O=C(NCCc1ccccc1C(F)(F)F)c1ccc(Oc2cc3c(cc2Cl)C(C(=O)O)CCO3)cc1 (centres unmarked) [Example 152, Sodium 6-chloro-7-(4-(2-(trifluoromethyl)phenethylcarbamoyl)phenoxy)chroman-4-carboxylate]	160	
